In patent US20230093099A1, “COMPOUNDS AND METHODS OF TREATING CANCERS” (CULLGEN (SHANGHAI), INC., priority 2019, published 2023):

test system: RS4;11 cells; assay: Cell viability assay (CellTiter-Glo) in RS4;11 cells; type: cell-based; conditions: Homo sapiens, 72 h; RS4;11 ALL cells treated for three days; read-out: cell viability inhibition IC50
Protocol: Specific exemplary heterobifunctional compounds were first characterized using cell viability assays. RS4;11 ALL cells were treated with bifunctional degraders for three days. The IC50 values ranged from 2 nM to over 10 uM.
MV4;11, RS4;11, Kasumi-1, HEL and other cells were treated with NVP-BSK805, TG101209 or selected degraders for 3 days at indicated concentrations following a 3-fold serial dilution.
HEL, RS4;11, MV4;11, Kasumi-1 and other cells were cultured at 37° C. with 5% CO2 in RPMI 1640 or DMEM Medium supplemented with 10% fetal bovine serum. Cells were authenticated using the short tandem repeat (STR) assays. Mycoplasma test results were negative.
Cells were seeded at a density of 5000 cells per well in 96-well assay plates and treated with test compounds following a 8-point or 12-point 3-fold serial dilution. Three days later, cell viability was determined using the CellTiter-Glo assay kit according to the manufacturer's instructions. The dose-response curves were determined and IC50 values were calculated using the GraphPad Prism software following a nonlinear regression (least squares fit) method.

Row | IC50 | SMILES
1 | < 0.1 µM | O=C(CN1CCC(n2cc(-c3cnc4cccc(-c5cc(F)c(CN6CCOCC6)c(F)c5)c4n3)cn2)CC1)NCCCCCCCCNc1ccc2c(c1)C(=O)N(C1CCC(=O)NC1=O)C2=O (centres unmarked) [JA-180, 2-(4-(4-(8-(3,5-difluoro-4-(morpholinomethyl)phenyl)quinoxalin-2-yl)-1H-pyrazol-1-yl)piperidin-1-yl)-N-(8-((2-(2,6-dioxopiperidin-3-yl)-1,3-dioxoisoindolin-5-yl)amino)octyl)acetamide]

same assay, conditions: Homo sapiens, 72 h; RS4;11 cells; cell viability, 3 days, CellTiter-Glo; read-out: IC50

Row | IC50 | SMILES
2 | 2.58 µM | Cc1cnc(Nc2ccc(N3CCN(C(=O)CCNc4cccc5c4C(=O)N(C4CCC(=O)NC4=O)C5=O)CC3)cc2)nc1Nc1cccc(S(=O)(=O)NC(C)(C)C)c1 (centres unmarked) [JA-009, N-(tert-Butyl)-3-((2-((4-(4-(3-((2-(2,6-dioxopiperidin-3-yl)-1,3-dioxoisoindolin-4-yl)amino)propanoyl)piperazin-1-yl)phenyl)amino)-5-methylpyrimidin-4-yl)amino)benzenesulfonamide]
3 | > 10 µM | Cc1ncsc1-c1ccc(CNC(=O)[C@@H]2C[C@@H](O)CN2C(=O)[C@@H](NC(=O)COCC(=O)N2CCC(n3cc(-c4cnc5cccc(-c6cc(F)c(CN7CCOCC7)c(F)c6)c5n4)cn3)CC2)C(C)(C)C)cc1 [JA-057, (2S,4R)-1-[(2S)-2-[[2-[2-[4-[4-[8-[3,5-Difluoro-4-(morpholinomethyl)phenyl]quinoxalin-2-yl]pyrazol-1-yl]-1-piperidyl]-2-oxo-ethoxy]acetyl]amino]-3,3-dimethyl-butanoyl]-4-hydroxy-N-[[4-(4-methylthiazol-5-yl)phenyl]methyl]pyrrolidine-2-carboxamide]
4 | > 10 µM | Cc1ncsc1-c1ccc(CNC(=O)[C@@H]2C[C@@H](O)CN2C(=O)[C@@H](NC(=O)CCOCCOCCOCCOCCC(=O)N2CCN(c3ccc(Nc4nc5cccc(-c6ccc(S(C)(=O)=O)cc6)n5n4)cc3)CC2)C(C)(C)C)cc1 [JA-063, (2S,4R)-1-((S)-2-(tert-Butyl)-19-(4-(4-((5-(4-(methylsulfonyl)phenyl)-[1,2,4]triazolo[1,5-a]pyridin-2-yl)amino)phenyl)piperazin-1-yl)-4,19-dioxo-7,10,13,16-tetraoxa-3-azanonadecanoyl)-4-hydroxy-N-(4-(4-methylthiazol-5-yl)benzyl)pyrrolidine-2-carboxamide]
5 | > 10 µM | CS(=O)(=O)c1ccc(-c2cccc3nc(Nc4ccc(N5CCN(CC(=O)NCCOCCOCCOCCOCCOCCNc6ccc7c(c6)C(=O)N(C6CCC(=O)NC6=O)C7=O)CC5)cc4)nn23)cc1 (centres unmarked) [JA-211, N-(17-((2-(2,6-Dioxopiperidin-3-yl)-1,3-dioxoisoindolin-5-yl)amino)-3,6,9,12,15-pentaoxaheptadecyl)-2-(4-(4-((5-(4-(methylsulfonyl)phenyl)-[1,2,4]triazolo[1,5-a]pyridin-2-yl)amino)phenyl)piperazin-1-yl)acetamide]
6 | > 10 µM | Cc1cnc(Nc2ccc(N3CCN(C(=O)CCCCCC(=O)N[C@H](C(=O)N4C[C@H](O)C[C@H]4C(=O)NCc4ccc(-c5scnc5C)cc4)C(C)(C)C)CC3)cc2)nc1Nc1cccc(S(=O)(=O)NC(C)(C)C)c1 [JA-025, (2S,4R)-1-((S)-2-(7-(4-(4-((4-((3-(N-(tert-Butyl)sulfamoyl)phenyl)amino)-5-methylpyrimidin-2-yl)amino)phenyl)piperazin-1-yl)-7-oxoheptanamido)-3,3-dimethylbutanoyl)-4-hydroxy-N-(4-(4-methylthiazol-5-yl)benzyl)pyrrolidine-2-carboxamide]
7 | 0.403 µM | CS(=O)(=O)c1ccc(-c2cccc3nc(Nc4ccc(N5CCN(C(=O)CCOCCOCCOCCNc6ccc7c(c6)C(=O)N(C6CCC(=O)NC6=O)C7=O)CC5)cc4)nn23)cc1 (centres unmarked) [JA-200, 2-(2,6-Dioxopiperidin-3-yl)-5-((2-(2-(2-(3-(4-(4-((5-(4-(methylsulfonyl)phenyl)-[1,2,4]triazolo[1,5-a]pyridin-2-yl)amino)phenyl)piperazin-1-yl)-3-oxopropoxy)ethoxy)ethoxy)ethyl)amino)isoindoline-1,3-dione]
8 | 0.743 µM | Cc1cnc(Nc2ccc(N3CCN(CC(=O)NCCOCCOCCOCCNc4ccc5c(c4)C(=O)N(C4CCC(=O)NC4=O)C5=O)CC3)cc2)nc1Nc1cccc(S(=O)(=O)NC(C)(C)C)c1 (centres unmarked) [JA-239, 2-(4-(4-((4-((3-(N-(tert-butyl)sulfamoyl)phenyl)amino)-5-methylpyrimidin-2-yl)amino)phenyl)piperazin-1-yl)-N-(2-(2-(2-(2-((2-(2,6-dioxopiperidin-3-yl)-1,3-dioxoisoindolin-5-yl)amino)ethoxy)ethoxy)ethoxy)ethyl)acetamide]
9 | > 10 µM | Cc1ncsc1-c1ccc(CNC(=O)[C@@H]2C[C@@H](O)CN2C(=O)[C@@H](NC(=O)CCCCC(=O)N2CCC(n3cc(-c4cnc5cccc(-c6cc(F)c(CN7CCOCC7)c(F)c6)c5n4)cn3)CC2)C(C)(C)C)cc1 [JA-041, (2S,4R)-1-[(2S)-2-[[6-[4-[4-[8-[3,5-Difluoro-4-(morpholinomethyl)phenyl]quinoxalin-2-yl]pyrazol-1-yl]-1-piperidyl]-6-oxo-hexanoyl]amino]-3,3-dimethyl-butanoyl]-4-hydroxy-N-[[4-(4-methylthiazol-5-yl)phenyl]methyl]pyrrolidine-2-carboxamide]
10 | > 10 µM | Cc1cnc(Nc2ccc(N3CCN(C(=O)COCCOCC(=O)N[C@H](C(=O)N4C[C@H](O)C[C@H]4C(=O)NCc4ccc(-c5scnc5C)cc4)C(C)(C)C)CC3)cc2)nc1Nc1cccc(S(=O)(=O)NC(C)(C)C)c1 [JA-032, (2S,4R)-1-((S)-2-(2-(2-(2-(4-(4-((4-((3-(N-(tert-Butyl)sulfamoyl)phenyl)amino)-5-methylpyrimidin-2-yl)amino)phenyl)piperazin-1-yl)-2-oxoethoxy)ethoxy)acetamido)-3,3-dimethylbutanoyl)-4-hydroxy-N-(4-(4-methylthiazol-5-yl)benzyl)pyrrolidine-2-carboxamide]
11 | > 10 µM | Cc1ncsc1-c1ccc(CNC(=O)[C@@H]2C[C@@H](O)CN2C(=O)[C@@H](NC(=O)COCCOCCOCCOCCOCC(=O)N2CCC(n3cc(-c4cnc5cccc(-c6cc(F)c(CN7CCOCC7)c(F)c6)c5n4)cn3)CC2)C(C)(C)C)cc1 [JA-055, (2S,4R)-1-[(2S)-2-[[2-[2-[2-[2-[2-[2-[4-[4-[8-[3,5-Difluoro-4-(morpholinomethyl)phenyl]quinoxalin-2-yl]pyrazol-1-yl]-1-piperidyl]-2-oxo-ethoxy]ethoxy]ethoxy]ethoxy]ethoxy]acetyl]amino]-3,3-dimethyl-butanoyl]-4-hydroxy-N-[[4-(4-methylthiazol-5-yl)phenyl]methyl]pyrrolidine-2-carboxamide]
12 | 0.573 µM | CS(=O)(=O)c1ccc(-c2cccc3nc(Nc4ccc(N5CCN(C(=O)CCOCCOCCOCCOCCNc6cccc7c6C(=O)N(C6CCC(=O)NC6=O)C7=O)CC5)cc4)nn23)cc1 (centres unmarked) [JA-080, 2-(2,6-Dioxo-piperidin-3-yl)-4-{2-[2-(2-{2-[3-(4-{4-[5-(4-methanesulfonyl-phenyl)-[1,2,4]triazolo[1,5-a]pyridin-2-ylamino]-phenyl}-piperazin-1-yl)-3-oxo-propoxy]-ethoxy}-ethoxy)-ethoxy]-ethylamino}-isoindole-1,3-dione]
13 | 0.0886 µM | O=C(CN1CCC(n2cc(-c3cnc4cccc(-c5cc(F)c(CN6CCOCC6)c(F)c5)c4n3)cn2)CC1)NCCCCCCCCNc1ccc2c(c1)C(=O)N(C1CCC(=O)NC1=O)C2=O (centres unmarked) [JA-180, 2-(4-(4-(8-(3,5-difluoro-4-(morpholinomethyl)phenyl)quinoxalin-2-yl)-1H-pyrazol-1-yl)piperidin-1-yl)-N-(8-((2-(2,6-dioxopiperidin-3-yl)-1,3-dioxoisoindolin-5-yl)amino)octyl)acetamide]
14 | 0.0054 µM | CS(=O)(=O)c1ccc(-c2cccc3nc(Nc4ccc(N5CCN(C(=O)CCCCCCc6ccc7c(c6)C(=O)N(C6CCC(=O)NC6=O)C7)CC5)cc4)nn23)cc1 (centres unmarked) [JA-268, 3-(6-(7-(4-(4-((5-(4-(methylsulfonyl)phenyl)-[1,2,4]triazolo[1,5-a]pyridin-2-yl)amino)phenyl)piperazin-1-yl)-7-oxoheptyl)-1-oxoisoindolin-2-yl)piperidine-2,6-dione]
15 | > 10 µM | Cc1ncsc1-c1ccc(CNC(=O)[C@@H]2C[C@@H](O)CN2C(=O)[C@@H](NC(=O)CCOCCNC(=O)CN2CCN(c3ccc(Nc4nc5cccc(-c6ccc(S(C)(=O)=O)cc6)n5n4)cc3)CC2)C(C)(C)C)cc1 [JA-136, (2S,4R)-1-((S)-3,3-Dimethyl-2-(3-(2-(2-(4-(4-((5-(4-(methylsulfonyl)phenyl)-[1,2,4]triazolo[1,5-a]pyridin-2-yl)amino)phenyl)piperazin-1-yl)acetamido)ethoxy)propanamido)butanoyl)-4-hydroxy-N-(4-(4-methylthiazol-5-yl)benzyl)pyrrolidine-2-carboxamide]
16 | > 10 µM | CS(=O)(=O)c1ccc(-c2cccc3nc(Nc4ccc(N5CCN(CC(=O)NCCOCCNc6cccc7c6C(=O)N(C6CCC(=O)NC6=O)C7=O)CC5)cc4)nn23)cc1 (centres unmarked) [JA-110, N-(2-(2-((2-(2,6-Dioxopiperidin-3-yl)-1,3-dioxoisoindolin-4-yl)amino)ethoxy)ethyl)-2-(4-(4-((5-(4-(methylsulfonyl)phenyl)-[1,2,4]triazolo[1,5-a]pyridin-2-yl)amino)phenyl)piperazin-1-yl)acetamide]
17 | > 10 µM | CS(=O)(=O)c1ccc(-c2cccc3nc(Nc4ccc(N5CCN(CC(=O)NCCCCCCNc6ccc7c(c6)C(=O)N(C6CCC(=O)NC6=O)C7=O)CC5)cc4)nn23)cc1 (centres unmarked) [JA-215, N-(6-((2-(2,6-dioxopiperidin-3-yl)-1,3-dioxoisoindolin-5-yl)amino)hexyl)-2-(4-(4-((5-(4-(methylsulfonyl)phenyl)-[1,2,4]triazolo[1,5-a]pyridin-2-yl)amino)phenyl)piperazin-1-yl)acetamide]
